Results: PMC4336141, “Repurposing Auranofin as a Lead Candidate for Treatment of Lymphatic Filariasis and Onchocerciasis” (PLoS Neglected Tropical Diseases, 2015)
“Also recorded” adds a separate entry of the source.

How the values were obtained:
[1] = test system: Recombinant B. malayi TrxR (rBmTrxR); assay: Recombinant B. malayi TrxR (rBmTrxR) DTNB inhibition assay; assay type: biochemical, Brugia malayi
Description: Recombinant 6-His-tagged B. malayi TrxR (rBmTrxR) was produced in E. coli BL21(DE3) in the presence of pSUABC [29] in LB medium supplemented with 20 μg/mL riboflavin under conditions for optimal selenoprotein expression. An overnight starter culture in LB with 50 μg/mL ampicillin and 34 μg/mL chloramphenicol was diluted (1:100) into in LB medium with the same antibiotics. When the culture reached an OD600 = 0.8, the medium was supplemented with 5 μM sodium selenite and 100 μg/mL L-cysteine. When the culture OD600 = 2, riboflavin (20 μg/mL) was added and protein expression was induced by the addition of isopropyl β-D-1-thiogalactopyranoside (50 μM). At this point the cultures were shifted to 24°C and incubated for 24 hr. Cells were collected by centrifugation, lysed by alternative freeze-thaw cycles, and resuspended in lysis buffer (50 mM potassium phosphate, pH 7.8, 500 mM NaCl, 30 mM imidazole, 1 mg/mL lysozyme, 1 mM phenylmethanesulfonylfluoride) supplemented with 100 μM flavin adenine dinucleotide. The sample was sonicated and cellular debris pelleted at 25,000 x g at 4°C for 25 min. The supernatant was collected and filtered through a 0.45 μm filter before purification by immobilized metal ion affinity chromatography using a His-Trap FF column (GE Healthcare). The column was washed with 10 column volumes binding buffer (50 mM potassium phosphate, pH 7.8, 500 mM NaCl, 30 mM imidazole) and then with 5 column volumes of buffer A (binding buffer with 100 mM imidazole). TrxR protein was eluted in 3 × 1 mL buffer B (binding buffer with 500 mM imidazole).Protein was concentrated (Amicon Ultra-4 10K) and purity was verified by SDS-PAGE and quantified by absorbance at 280 nm (ε = 69.76 mM^-1 cm^-1).
rBmTrxR activity was assayed in 0.1 M potassium phosphate (pH 7.2) with 10 mM EDTA and 25 nM rBmTrxR. rBmTxrR was pre-incubated for 20 min with NADPH (100 μM) and auranofin (ICN Pharmaceuticals, now Valeant Pharmaceuticals, Bridgewater, NJ) or aurothioglucose (USP Reference Standards, Rockville, MD) in DMSO in 100 μL, followed by addition of an equal volume of buffer with NADPH (200 μM) and DTNB (6 mM) with reaction progress monitored at λ = 412 nm for TNB production. The concentration of DMSO in all reactions was 3.5%.

adult female B. pahangi = assay: Transmission electron microscopy of treated adult female B. pahangi; assay type: cell-based, Brugia pahangi; conditions: flubendazole 10 μM overnight, positive control
Description: Adult female B. pahangi worms were incubated with either 1 μM, 0.3 μM, or 0.1 μM auranofin, 10 μM flubendazole (as a positive control), or 1% DMSO overnight, then cut into 3 segments separating the anterior, middle and posterior sections. The middle sections were further cut into 1 mm sized pieces in fixative (2.5% glutaraldehyde and 2% paraformaldehyde in 0.1 M sodium cacodylate buffer, pH 7.3–7.4) and stored at 4°C. Middle sections were subsequently treated with 1% tannic acid for 1 hour, followed by three buffer washes before post fixation staining with 2% osmium tetroxide for 1 hour. The samples were washed three times in buffer before dehydration in an ethanol series. Worm sections were then infiltrated with propylene oxide, embedded in epon 812 resin and polymerized in a vacuum oven at 60°C overnight. Ultrathin sections were cut using an RMC MTX ultramicrotome with a Diatome diamond knife followed by post staining of the grids with saturated ethanolic uranyl acetate and Reynolds lead citrate. Samples were imaged on a FEI Tecnai 12 spirit TEM operated at 80 kV. A similar procedure was performed on adult female O. ochengi worm masses that were cultured for 7 days with 10 μM auranofin before fixation of cut pieces of the adult female mass. Untreated adult female masses cultured for 7 days and fixed by the same procedure served as the control.

| Molecule | mode of inhibition of rBmTrxR [1] | IC50 ([1]; 25 nM rBmTrxR, 20 min pre-incubation with NADPH, DTNB substrate) [nM] | ultrastructure (TEM) of adult female B. pahangi (adult female B. pahangi) |
| --- | --- | --- | --- |
| aurothioglucose | irreversibly inhibit rBmTrxR at a one-to-one molar ratio | 9 |  |
| COC(=O)Nc1nc2cc(C(=O)c3ccc(F)cc3)ccc2[nH]1 [flubendazole] |  |  | normal Wolbachia with very few mitochondria containing dark bodies; also recorded: did not cause vacuolization but only minor changes to the mitochondria |
